Measurements from ChEMBL document CHEMBL5465560, “Selectivity Literature for EUbOPEN Chemogenomic Library” (2024).

Key:
[1] = target: T1, Serine/threonine-protein kinase NLK (Homo sapiens) (UniProt Q9UBE8); assay: Selectivity interaction (KinomeScan (DiscoverX)) EUB0000092b NLK; conditions: at 10 µM
T1 sequence (whole entry): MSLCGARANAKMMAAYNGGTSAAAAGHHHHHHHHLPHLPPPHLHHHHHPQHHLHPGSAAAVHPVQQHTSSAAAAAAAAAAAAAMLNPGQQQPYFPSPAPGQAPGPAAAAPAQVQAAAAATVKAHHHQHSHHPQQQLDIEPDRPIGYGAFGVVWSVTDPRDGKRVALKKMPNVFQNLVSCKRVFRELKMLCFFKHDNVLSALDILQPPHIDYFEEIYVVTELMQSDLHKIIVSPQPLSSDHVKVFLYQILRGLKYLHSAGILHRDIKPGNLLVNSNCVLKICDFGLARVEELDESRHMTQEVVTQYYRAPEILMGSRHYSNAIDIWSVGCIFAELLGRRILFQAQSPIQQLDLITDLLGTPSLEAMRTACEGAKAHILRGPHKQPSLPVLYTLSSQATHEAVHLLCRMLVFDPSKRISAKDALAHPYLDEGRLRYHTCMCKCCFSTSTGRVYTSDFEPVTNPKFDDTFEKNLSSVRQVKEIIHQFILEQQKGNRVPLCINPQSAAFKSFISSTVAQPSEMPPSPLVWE

[2] = target: Myosin light chain kinase, smooth muscle (Homo sapiens, UniProt Q15746); assay: Selectivity interaction (KinomeScan (DiscoverX)) EUB0000655a MYLK; conditions: at 10 µM
[3] = target: Non-receptor tyrosine-protein kinase TYK2 (Homo sapiens, UniProt P29597); assay: Selectivity interaction (KinomeScan (DiscoverX)) EUB0000655a TYK2; conditions: at 10 µM
[4] = target: T2, Serine/threonine-protein kinase RIO1 (Homo sapiens) (UniProt Q9BRS2); assay: Selectivity interaction (KinomeScan (DiscoverX)) EUB0000666a RIOK1; conditions: at 10 µM
T2 sequence (whole entry): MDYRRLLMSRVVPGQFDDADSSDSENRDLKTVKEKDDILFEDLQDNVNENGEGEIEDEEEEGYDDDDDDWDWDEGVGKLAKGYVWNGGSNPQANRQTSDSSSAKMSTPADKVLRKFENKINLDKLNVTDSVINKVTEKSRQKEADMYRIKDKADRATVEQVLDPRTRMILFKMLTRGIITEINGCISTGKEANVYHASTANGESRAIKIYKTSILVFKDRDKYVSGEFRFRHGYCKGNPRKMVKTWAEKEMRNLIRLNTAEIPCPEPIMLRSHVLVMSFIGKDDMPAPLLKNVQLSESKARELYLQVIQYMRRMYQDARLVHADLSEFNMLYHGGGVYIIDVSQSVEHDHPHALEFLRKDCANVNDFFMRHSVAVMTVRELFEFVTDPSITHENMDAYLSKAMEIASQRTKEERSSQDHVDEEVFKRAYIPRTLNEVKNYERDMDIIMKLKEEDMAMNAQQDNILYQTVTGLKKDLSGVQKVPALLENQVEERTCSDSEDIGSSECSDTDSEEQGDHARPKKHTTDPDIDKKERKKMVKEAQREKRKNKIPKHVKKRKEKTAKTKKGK

[5] = test system: Hepatocyte growth factor receptor (Homo sapiens), P08581 [Y1235D]; conditions: at 10 µM
[6] = target: T3, Mitogen-activated protein kinase 15 (Homo sapiens) (UniProt Q8TD08); assay: Selectivity interaction (Rxn Biology Kinase assay) EUB0001632a MAPK15; conditions: at 10 µM
T3 sequence (whole entry): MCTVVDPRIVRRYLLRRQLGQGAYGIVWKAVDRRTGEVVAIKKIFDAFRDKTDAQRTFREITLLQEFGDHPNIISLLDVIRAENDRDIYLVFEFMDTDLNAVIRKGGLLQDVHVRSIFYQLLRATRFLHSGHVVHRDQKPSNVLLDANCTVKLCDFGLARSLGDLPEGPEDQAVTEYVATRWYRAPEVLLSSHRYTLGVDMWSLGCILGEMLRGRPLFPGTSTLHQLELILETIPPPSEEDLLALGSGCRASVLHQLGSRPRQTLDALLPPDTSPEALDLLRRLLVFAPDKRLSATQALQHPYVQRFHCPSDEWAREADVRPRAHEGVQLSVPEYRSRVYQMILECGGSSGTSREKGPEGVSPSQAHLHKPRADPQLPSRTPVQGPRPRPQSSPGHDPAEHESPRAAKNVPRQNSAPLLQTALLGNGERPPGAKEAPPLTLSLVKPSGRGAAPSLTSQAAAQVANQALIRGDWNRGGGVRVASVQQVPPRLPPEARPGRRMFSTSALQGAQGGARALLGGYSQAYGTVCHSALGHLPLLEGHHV

[7] = target: Tyrosine-protein kinase JAK1 (Homo sapiens, UniProt P23458); assay: Selectivity interaction (ActivX KiNativ screen (kinase selectivity in THP-1 cell lysates)) EUB0000639a JAK1; assay type: subcellular; conditions: lysate, at 0.04 µM
[8] = target: Cyclin-dependent kinase 2 (Homo sapiens, UniProt P24941); assay: Selectivity interaction (ActivX KiNativ screen (kinase selectivity in THP-1 cell lysates)) EUB0000639a CDK2; assay type: subcellular; conditions: lysate, at 0.01 µM
[9] = target: Ribosomal protein S6 kinase alpha-1 (Homo sapiens, UniProt Q15418); assay: Selectivity interaction (ActivX KiNativ screen (kinase selectivity in THP-1 cell lysates)) EUB0000639a RPS6KA1; assay type: subcellular; conditions: lysate, at 5 µM
[10] = target: SRSF protein kinase 1 (Homo sapiens, UniProt Q96SB4); assay: Selectivity interaction (KinomeScan (DiscoverX)) EUB0001049a SRPK1; conditions: at 1 µM
[11] = target: 1-phosphatidylinositol 3-phosphate 5-kinase (Homo sapiens) (UniProt Q9Y2I7); assay: Selectivity interaction (ActivX KiNativ screen (ex vivo kinase selectivity in human PBMCs)) EUB0001619a PIKFYVE; assay type: cell-based; conditions: PBMC, at 1 µM
[12] = target: Serine/threonine-protein kinase MRCK beta (Homo sapiens) (UniProt Q9Y5S2); assay: Selectivity interaction (KinomeScan (DiscoverX)) EUB0001619a CDC42BPB; conditions: at 1 µM

Sequence of 1-phosphatidylinositol 3-phosphate 5-kinase (Homo sapiens) (Q9Y2I7 whole entry): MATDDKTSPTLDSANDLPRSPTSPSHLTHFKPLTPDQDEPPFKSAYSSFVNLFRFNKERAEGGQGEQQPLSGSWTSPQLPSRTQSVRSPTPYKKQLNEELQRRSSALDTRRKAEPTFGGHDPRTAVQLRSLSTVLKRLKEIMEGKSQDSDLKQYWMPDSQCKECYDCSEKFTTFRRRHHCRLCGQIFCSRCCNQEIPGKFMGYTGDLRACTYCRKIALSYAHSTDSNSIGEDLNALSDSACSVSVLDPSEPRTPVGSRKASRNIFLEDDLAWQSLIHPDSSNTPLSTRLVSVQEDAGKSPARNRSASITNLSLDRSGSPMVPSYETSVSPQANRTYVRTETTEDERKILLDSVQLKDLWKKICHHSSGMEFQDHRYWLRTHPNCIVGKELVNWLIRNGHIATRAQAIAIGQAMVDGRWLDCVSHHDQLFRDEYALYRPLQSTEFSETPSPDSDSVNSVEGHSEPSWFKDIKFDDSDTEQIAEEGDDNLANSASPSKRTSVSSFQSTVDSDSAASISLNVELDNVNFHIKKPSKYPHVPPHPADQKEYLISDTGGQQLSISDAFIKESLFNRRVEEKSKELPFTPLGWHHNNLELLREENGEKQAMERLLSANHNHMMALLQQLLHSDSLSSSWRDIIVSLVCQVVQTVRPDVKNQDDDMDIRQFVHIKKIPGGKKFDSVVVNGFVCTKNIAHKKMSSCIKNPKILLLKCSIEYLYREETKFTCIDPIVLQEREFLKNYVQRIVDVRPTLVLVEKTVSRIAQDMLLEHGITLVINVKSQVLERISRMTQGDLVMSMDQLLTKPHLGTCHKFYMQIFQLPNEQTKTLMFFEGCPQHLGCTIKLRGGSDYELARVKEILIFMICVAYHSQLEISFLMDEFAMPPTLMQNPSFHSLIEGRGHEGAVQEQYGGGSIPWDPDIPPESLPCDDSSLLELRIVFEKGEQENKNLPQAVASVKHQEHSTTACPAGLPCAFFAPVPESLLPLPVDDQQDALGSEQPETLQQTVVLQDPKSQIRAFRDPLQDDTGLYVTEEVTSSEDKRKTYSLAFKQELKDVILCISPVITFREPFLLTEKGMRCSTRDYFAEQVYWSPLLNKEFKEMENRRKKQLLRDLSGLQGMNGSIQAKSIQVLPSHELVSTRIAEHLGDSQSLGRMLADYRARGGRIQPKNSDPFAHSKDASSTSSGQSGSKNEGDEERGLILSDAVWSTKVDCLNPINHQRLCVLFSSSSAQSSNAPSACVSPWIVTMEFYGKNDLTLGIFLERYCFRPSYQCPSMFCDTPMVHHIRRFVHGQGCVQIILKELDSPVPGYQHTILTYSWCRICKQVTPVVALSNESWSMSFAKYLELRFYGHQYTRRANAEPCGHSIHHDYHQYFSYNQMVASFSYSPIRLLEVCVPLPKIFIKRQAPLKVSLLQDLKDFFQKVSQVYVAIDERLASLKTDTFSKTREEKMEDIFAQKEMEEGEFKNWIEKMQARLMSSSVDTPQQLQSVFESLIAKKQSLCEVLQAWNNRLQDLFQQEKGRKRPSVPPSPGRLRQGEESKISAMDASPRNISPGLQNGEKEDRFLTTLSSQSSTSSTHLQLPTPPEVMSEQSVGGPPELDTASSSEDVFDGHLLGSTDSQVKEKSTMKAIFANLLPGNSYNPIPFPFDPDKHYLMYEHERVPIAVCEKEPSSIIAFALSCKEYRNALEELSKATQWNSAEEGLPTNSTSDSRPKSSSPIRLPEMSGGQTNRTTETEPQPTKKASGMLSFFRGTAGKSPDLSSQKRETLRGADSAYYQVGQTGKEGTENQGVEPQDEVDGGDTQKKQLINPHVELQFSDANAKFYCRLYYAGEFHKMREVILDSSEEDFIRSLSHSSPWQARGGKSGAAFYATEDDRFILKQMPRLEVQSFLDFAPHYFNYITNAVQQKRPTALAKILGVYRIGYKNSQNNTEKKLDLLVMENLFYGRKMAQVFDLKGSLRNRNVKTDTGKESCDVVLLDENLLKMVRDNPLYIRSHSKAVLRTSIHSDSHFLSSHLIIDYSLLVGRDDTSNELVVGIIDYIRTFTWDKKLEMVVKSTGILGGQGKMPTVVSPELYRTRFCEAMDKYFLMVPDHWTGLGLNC
Sequence of Myosin light chain kinase, smooth muscle (Q15746 whole entry): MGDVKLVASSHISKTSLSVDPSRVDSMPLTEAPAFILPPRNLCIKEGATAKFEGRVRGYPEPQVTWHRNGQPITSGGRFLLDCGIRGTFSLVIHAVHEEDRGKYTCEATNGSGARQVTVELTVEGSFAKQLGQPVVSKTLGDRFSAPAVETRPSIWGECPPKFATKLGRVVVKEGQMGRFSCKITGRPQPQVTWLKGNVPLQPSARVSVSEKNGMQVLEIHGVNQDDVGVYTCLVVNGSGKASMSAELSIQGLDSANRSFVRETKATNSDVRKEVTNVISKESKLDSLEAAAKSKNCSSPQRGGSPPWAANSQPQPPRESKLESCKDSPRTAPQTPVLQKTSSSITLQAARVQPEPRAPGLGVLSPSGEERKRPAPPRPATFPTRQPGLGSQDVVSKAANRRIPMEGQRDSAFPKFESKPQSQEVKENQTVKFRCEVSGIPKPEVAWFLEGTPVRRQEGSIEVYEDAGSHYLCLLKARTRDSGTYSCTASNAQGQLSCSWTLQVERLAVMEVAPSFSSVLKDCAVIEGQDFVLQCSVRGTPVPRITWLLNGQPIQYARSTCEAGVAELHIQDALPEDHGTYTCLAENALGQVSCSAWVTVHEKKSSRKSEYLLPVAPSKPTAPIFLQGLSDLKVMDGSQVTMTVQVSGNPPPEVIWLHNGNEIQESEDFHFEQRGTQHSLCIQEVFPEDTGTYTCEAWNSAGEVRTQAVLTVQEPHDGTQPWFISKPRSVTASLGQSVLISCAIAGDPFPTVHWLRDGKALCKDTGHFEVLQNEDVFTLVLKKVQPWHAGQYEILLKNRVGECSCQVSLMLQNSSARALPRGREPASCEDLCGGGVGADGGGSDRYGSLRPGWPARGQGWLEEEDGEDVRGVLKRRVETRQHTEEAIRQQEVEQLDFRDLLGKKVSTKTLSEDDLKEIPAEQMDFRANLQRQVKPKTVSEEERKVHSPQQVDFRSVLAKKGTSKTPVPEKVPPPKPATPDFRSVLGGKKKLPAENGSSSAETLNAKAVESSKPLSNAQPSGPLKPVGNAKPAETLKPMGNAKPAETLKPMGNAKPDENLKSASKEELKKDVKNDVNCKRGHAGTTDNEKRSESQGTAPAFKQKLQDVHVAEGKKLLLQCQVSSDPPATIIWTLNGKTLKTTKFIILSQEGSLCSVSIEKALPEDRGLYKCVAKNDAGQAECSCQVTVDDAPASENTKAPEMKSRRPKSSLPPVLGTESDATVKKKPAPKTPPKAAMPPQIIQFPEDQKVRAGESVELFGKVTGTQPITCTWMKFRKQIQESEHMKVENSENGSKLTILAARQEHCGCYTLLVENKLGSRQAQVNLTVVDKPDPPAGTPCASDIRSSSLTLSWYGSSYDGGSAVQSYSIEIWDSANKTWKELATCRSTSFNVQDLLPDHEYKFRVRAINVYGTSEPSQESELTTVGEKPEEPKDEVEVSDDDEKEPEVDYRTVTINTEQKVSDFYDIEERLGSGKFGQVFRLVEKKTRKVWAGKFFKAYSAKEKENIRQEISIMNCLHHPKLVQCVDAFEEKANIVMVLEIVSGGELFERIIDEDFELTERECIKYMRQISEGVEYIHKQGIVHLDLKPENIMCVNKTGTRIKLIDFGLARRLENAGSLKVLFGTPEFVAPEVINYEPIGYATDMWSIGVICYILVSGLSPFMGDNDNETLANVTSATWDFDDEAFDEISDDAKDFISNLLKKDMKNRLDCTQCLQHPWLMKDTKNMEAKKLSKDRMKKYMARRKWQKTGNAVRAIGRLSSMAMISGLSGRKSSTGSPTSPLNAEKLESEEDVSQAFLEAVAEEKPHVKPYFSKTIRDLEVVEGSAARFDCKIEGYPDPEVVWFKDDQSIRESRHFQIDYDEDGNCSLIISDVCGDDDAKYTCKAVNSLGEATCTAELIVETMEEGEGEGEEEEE
Sequence of Ribosomal protein S6 kinase alpha-1 (Q15418 whole entry): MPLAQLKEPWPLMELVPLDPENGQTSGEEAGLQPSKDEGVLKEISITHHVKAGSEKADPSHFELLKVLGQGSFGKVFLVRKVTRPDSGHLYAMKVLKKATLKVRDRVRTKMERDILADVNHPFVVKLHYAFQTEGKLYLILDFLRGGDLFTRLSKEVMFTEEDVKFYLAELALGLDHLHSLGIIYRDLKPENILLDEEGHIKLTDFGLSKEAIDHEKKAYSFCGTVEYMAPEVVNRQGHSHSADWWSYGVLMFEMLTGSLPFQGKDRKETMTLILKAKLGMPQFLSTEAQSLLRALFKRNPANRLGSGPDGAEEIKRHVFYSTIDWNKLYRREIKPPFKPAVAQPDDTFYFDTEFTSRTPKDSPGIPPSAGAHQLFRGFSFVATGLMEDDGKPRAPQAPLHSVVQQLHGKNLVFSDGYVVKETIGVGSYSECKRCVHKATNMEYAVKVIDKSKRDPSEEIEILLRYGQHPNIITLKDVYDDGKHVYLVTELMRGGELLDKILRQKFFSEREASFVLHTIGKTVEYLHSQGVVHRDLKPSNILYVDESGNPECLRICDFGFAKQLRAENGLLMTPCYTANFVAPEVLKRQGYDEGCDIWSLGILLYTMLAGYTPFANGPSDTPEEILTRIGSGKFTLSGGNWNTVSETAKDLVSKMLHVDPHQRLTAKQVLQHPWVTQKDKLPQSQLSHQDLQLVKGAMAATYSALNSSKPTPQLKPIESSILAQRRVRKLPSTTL

CCC(=O)N1CCN(c2ccc(-n3c(=O)ccc4cnc5ccc(-c6cnc7ccccc7c6)cc5c43)cc2C(F)(F)F)CC1
% of control [1]: 25%

CN(C)CCOc1ccc(-c2nc(-c3ccncc3)c(-c3ccc4c(c3)CC/C4=N\O)[nH]2)cc1
% of control [2]: 51% | % of control [3]: 52%

O=C(NOC[C@H](O)CO)c1ccc(F)c(F)c1Nc1ccc(I)cc1F
% of control [4]: 95%

Cc1cc([C@@H](C)Nc2ccccc2C(=O)O)c2nc(N3CCOCC3)cc(=O)n2c1 [AZD-6482]
% of control [5]: 78%

Cn1cc(-n2cnc3c(NCc4nc5cc(Cl)c(Cl)cc5[nH]4)nc(N4CCOCC4)nc32)cn1
% of inhibition [6]: -25.6%

CC[C@@H]1[C@H](F)C(=O)N[C@@H]1COc1nccc2cc(C(N)=O)c(OC)cc12 [ZIMLOVISERTIB]
% of inhibition [7]: 14.8% | % of inhibition [8]: 0.3% | % of inhibition [9]: 21.5%

COc1cc(Nc2nc(C)cc(-c3cnn4nc(OC)ccc34)n2)cc(C(F)(F)F)c1
% of control [10]: 96%

N#Cc1cccc(-c2c[nH]c3ncnc(N4CCOCC4)c23)c1
% of inhibition [11]: 22% | % of control [12]: 83%
